“Also recorded” adds a separate entry of the source.
What was measured:
Sprague-Dawley rats = experiment: actimetry (locomotor activity) in rats over a daily tail radiation regimen; assay type: in vivo; conditions: 2 Gy/day tail radiation for 6 weeks; 1 mg/kg ip 15 minutes before actimetry
Description: Eight week old male Sprague-Dawley rats underwent a 6-week regimen of 2 Gy/day daily tail radiation of mock exposure. Prior to the start of the regimen, baseline activity was recorded as total distance traveled in 30 minutes in the actimetry chamber. During the regimen and for 2 weeks following the end of the regimen, actimetry measurements were made once per week, and for these measurements, half of the tail-irradiated rats and half of the mock-exposed rats were injected with naloxone (1 mg/kg, ip) 15 minutes prior to actimetry testing, and the other half of tail-irradiated and mock-exposed animals were injected with saline (ip) 15 minutes prior to actimetry testing. In addition, blood was drawn prior to, once weekly during, and once weekly for 2 weeks following the end of the regimen for β-endorphin measurement. […] Top graphs show results for tail-irradiated rats, bottom graphs show results for mock-exposed controls. Left side graphs show results for rats injected with saline prior to actimetry testing, right side graphs show results for rats injected with naloxone prior to actimetry testing. […] Error bars indicate +/−SEM, and (*) indicates p<0.05 by two-tailed Student's t-test with respect to baseline values for that group.

C57BL/6 male mice = experiment: analgesic thresholds (von Frey and hot plate assays) over a tail radiation or mock regimen; assay type: in vivo
Description: Example 4 describes analgesic response changes in response to tail-only radiation exposure. To obtain the data shown in FIGS. 4A and 4B, 8-week old male mice were either exposed to a dose of 5 Gy/day gamma radiation or mock exposed for 6 weeks. Mechanical (FIG. 4A) and thermal (FIG. 4B) analgesic thresholds were measured twice per week over the course of the regimen, and for 2 weeks after the regimen. The threshold testing was performed in the morning before the radiation treatment or mock exposure. The mock exposed mice were either injected with saline 15 minutes before the testing, or with 10 mg/kg naloxone 15 minutes before the testing. The radiation treatment group was divided into 2 subgroups. The first group was given saline injections 15 minutes before the testing. The second group was given a 10 mg/kg naloxone injection 15 minutes before the testing. For all groups of mice, blood was drawn once per week for beta-endorphin measurement. Data for FIG. 4A was obtained from C57BL/6 male mice, and there were 10 mice per treatment group. Data for FIG. 4B was obtained from C57BL/6 male mice, and there were 10 mice per treatment group. An asterisk indicates p<0.05 by t-test. FIGS. 4A and 4B show both mechanical and thermal analgesic thresholds increase over the radiation regimen similarly to plasma beta-endorphin fluctuations (Figure C).
In this assay of mechanical nociceptive threshold, mice were placed on an elevated wire mesh grid, and the plantar surface of the left hind paw was poked with fibers calibrated to different pressures. Mice were each poked 10 times at each pressure at a rate of 1/second, starting with the lowest pressure and stopping at the pressure that elicits a positive response for a given mouse, thus indicating the mechanical nociceptive threshold for that mouse. A positive response was 2/10 responses of paw flinching, fluttering, or licking immediately following the poke. These experiments were performed in mice undergoing daily tail radiation or mock tail radiation as follows.
Prior to the start of the tail radiation regimen, mice were habituated over one week by spending 1 hour/day in individual wire mesh cages on the elevated wire mesh grid. In addition, prior to each measurement, mice spent 30 minutes on the wire mesh grid to habituate before measurements were taken. Two measurements of baseline thresholds were taken on two different days prior to the start of the radiation regimen. During the radiation regimen and for 2 weeks following the end of the regimen, mice were tested twice per week on two different, non-consecutive days. Mice receiving mock treatment and 1 subgroup of mice receiving tail radiation were injected with saline (ip) 15 minutes prior to testing. […]

plasma β-endorphin = plasma β-endorphin by radioimmunoassay over a tail radiation or mock regimen; assay type: in vivo, mice
Excerpt: FIG. 4C illustrates the plasma beta-endorphin fluctuations in the C57BL/6 mice as described in FIGS. 4A and 4B. To obtain the data shown in FIG. 4C, blood was drawn once per week over the 6 week regimen, and for the 2 weeks following. The blood was drawn in the morning prior to the radiation treatment for that day. FIG. 4C uses data obtained by C57BL/6 male mice, 10 mice per treatment group. Mock exposed mice remained stable throughout the regimen.
For all experiments, mice used were in a C57BL/6 background. In all experiments wild type mice were used, and in select experiments mice containing homozygous deletion of the p53 gene (p53−/−) were used. All mice were 8 weeks old at the beginning of each experiment. […] Blood Draws and Preparation for Radioimmunoassay Mice were placed in a standard restrainer. A 30-gauge needle was inserted into the tail vein, and 200 uL of blood was collected in EDTA microvette tubes containing 5 TIU aprotinin. Tubes were maintained on ice at all times. Tubes were spun at 3500 rpm at 4° C. for 20 minutes. Plasma was isolated for β-endorphin measurement by commercially available radioimmunoassay (Phoenix Pharmaceuticals). […]

## C=CCN1CC[C@]23c4c5ccc(O)c4O[C@H]2C(=O)CC[C@@]3(O)[C@H]1C5 [naloxone]
Sprague-Dawley rats
  effect on radiation-induced lethargy (total distance traveled in 30 minutes): Naloxone-Reversible Lethargy
C57BL/6 male mice; mock-exposed mice, 10 mg/kg, compared to mock-exposed, saline-treated mice
  sensitivity to mechanical and thermal stimuli: increased sensitivity to mechanical and thermal stimuli
C57BL/6 male mice; tail-irradiated mice 5 Gy/day for 6 weeks, 10 mg/kg 15 minutes before testing, 10 mg/kg
  effect on radiation-induced changes in mechanical and thermal analgesic thresholds: prevented; also recorded: prevents changes in analgesic thresholds
C57BL/6 male mice; tail-irradiated mice, 10 mg/kg 15 minutes before testing, as the radiation regimen progressed
  sensitivity to mechanical and thermal stimuli: increased sensitivity to both mechanical and thermal stimuli
C57BL/6 male mice; tail-irradiated mice, upon naloxone injection, 10 mg/kg
  other withdrawal phenotypes (jumping, wet-dog shaking, teeth chattering, diarrhea): not observed acutely
Plasma β-endorphin; mock-exposed mice, 10 mg/kg
  change in plasma beta-endorphin levels: no increase in plasma beta-endorphin levels
Plasma β-endorphin; tail-irradiated mice, 10 mg/kg before behavioral testing, over the radiation regimen
  change in plasma β-endorphin: most dramatic increase in plasma β-endorphin; also recorded: elevations in systemic beta-endorphin over and above the elevation caused by tail radiation alone

Reference: patent US20120149724A1, “MODULATING ENDOGENOUS BETA-ENDORPHIN LEVELS” (THE GENERAL HOSPITAL CORPORATION, priority 2009, published 2012)
